Columns and labels:
RECEPTEURS α2 = assay: Affinity for the α2 receptor in vitro; assay type: binding; conditions: read-out: AFFINITE RECEPTEURS α2 IN VITRO IC […]; read-out: […] […] α2 IN VITRO IC 50 M
5-HT = 5-HT (Homo sapiens, UniProt P31645); assay: Inhibition of neurotransmitter uptake in vitro, 5-HT; assay type: cell-based; conditions: for IC50: 5-HT = (so in the source), read-out: UPTAKE NEUROTRANSMETTEUR IN VITRO IC 50 M 5-HT
DA = DA (Homo sapiens, UniProt Q01959); assay: Inhibition of neurotransmitter uptake in vitro, dopamine; assay type: cell-based; conditions: for UPTAKE NEUROTRANSMETTEUR IN VITRO IC 50 M DA: DA = Dopamine; for IC50: read-out: UPTAKE NEUROTRANSMETTEUR IN VITRO IC 50 M DA
NAd = NAd (Homo sapiens, UniProt P23975); assay: Inhibition of neurotransmitter uptake in vitro, noradrenaline; assay type: cell-based; conditions: NAd = Noradrénaline; for IC50: read-out: UPTAKE NEUROTRANSMETTEUR IN VITRO IC 50 M NAd
[1] = mouse, doses 0,75 à 20 mg/kg
récepteurs α₂ = conditions: lizard; Carter and Shuster, Br. J. Pharmacol. (1982), 75, 169-176; cited from earlier work
[2] = Motor activity (exploration) in the mouse; assay type: in vivo, souris
[3] = Cardiovascular activity in the anaesthetised dog; assay type: in vivo, chien
Source text: Les 2-amino-oxazolines selon l'invention se caractérisent par des propriétés pharmacologiques intéressantes, et notamment par des propriétés anti-dépressives, hypertensives et analeptiques vasculaires. Elles agissent sur les récepteurs α₂, soit par un phénomène de bloquage, soit par un effet agoniste. […] Cet effet s'apparente donc à celui de la Yohimbine.
Chez le chien anesthésié, l'injection des produits selon l'invention provoque une hypertension durable, à des doses relativement faibles, allant de 0,05 à 1 mg/kg I.V.

[4] = in vivo

Sequence of NAd (P23975 whole entry): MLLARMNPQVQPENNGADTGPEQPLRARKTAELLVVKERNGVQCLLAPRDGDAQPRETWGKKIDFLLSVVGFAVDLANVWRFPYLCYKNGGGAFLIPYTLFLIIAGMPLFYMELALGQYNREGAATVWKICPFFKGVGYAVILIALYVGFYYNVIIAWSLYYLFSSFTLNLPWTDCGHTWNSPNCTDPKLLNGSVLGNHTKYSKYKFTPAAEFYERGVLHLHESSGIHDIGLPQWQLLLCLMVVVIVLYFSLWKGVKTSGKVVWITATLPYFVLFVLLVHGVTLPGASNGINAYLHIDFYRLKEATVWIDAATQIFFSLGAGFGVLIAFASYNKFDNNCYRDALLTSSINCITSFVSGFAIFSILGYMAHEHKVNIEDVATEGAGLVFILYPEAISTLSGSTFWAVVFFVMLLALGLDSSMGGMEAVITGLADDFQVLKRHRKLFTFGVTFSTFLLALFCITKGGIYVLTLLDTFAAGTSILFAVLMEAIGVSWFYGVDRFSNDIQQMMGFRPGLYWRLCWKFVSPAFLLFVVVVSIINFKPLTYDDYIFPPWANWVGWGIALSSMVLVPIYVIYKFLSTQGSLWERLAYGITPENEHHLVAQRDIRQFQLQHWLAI
Sequence of DA (Q01959 whole entry): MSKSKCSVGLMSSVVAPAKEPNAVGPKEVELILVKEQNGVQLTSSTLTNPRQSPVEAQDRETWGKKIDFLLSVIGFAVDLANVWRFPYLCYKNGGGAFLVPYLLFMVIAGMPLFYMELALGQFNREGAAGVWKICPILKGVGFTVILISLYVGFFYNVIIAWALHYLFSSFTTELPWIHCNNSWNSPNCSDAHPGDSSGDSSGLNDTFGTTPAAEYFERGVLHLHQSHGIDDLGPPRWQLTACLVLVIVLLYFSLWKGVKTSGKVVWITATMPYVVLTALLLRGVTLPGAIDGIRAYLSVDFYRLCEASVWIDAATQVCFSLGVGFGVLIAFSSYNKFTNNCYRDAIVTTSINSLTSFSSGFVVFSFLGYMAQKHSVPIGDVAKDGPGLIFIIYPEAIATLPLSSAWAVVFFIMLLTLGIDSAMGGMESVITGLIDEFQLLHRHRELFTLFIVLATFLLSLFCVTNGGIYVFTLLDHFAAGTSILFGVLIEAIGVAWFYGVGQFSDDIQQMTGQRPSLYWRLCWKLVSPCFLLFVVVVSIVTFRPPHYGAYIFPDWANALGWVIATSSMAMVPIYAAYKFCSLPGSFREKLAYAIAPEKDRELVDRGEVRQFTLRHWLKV
Sequence of 5-HT (P31645 whole entry): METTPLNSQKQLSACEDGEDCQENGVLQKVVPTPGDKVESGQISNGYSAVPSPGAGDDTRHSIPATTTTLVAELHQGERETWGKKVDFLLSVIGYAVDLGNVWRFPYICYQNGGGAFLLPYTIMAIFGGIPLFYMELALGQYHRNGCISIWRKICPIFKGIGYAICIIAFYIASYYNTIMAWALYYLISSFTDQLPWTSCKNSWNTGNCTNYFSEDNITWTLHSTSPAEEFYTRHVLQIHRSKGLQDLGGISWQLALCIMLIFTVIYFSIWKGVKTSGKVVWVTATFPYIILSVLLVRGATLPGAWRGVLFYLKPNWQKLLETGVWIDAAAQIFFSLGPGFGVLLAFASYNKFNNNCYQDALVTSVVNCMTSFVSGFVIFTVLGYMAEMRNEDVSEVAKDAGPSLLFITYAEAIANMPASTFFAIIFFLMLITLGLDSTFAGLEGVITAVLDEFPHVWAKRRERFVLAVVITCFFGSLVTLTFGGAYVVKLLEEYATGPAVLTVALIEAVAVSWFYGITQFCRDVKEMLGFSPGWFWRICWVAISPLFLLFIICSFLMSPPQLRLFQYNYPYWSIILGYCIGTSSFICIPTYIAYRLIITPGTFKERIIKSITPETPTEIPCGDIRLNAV

SMILES: NC1=NC(Cc2ccccc2Cl)CO1 (single isomer, unassigned) [ex. 23]
- IC50 (RECEPTEURS α2): 0.0033 µM

SMILES: Cc1ccc(N(CC2=NCCN2)c2cccc(O)c2)cc1 [PHENTOLAMINE, reference compound]
- IC50 (RECEPTEURS α2): 0.022 µM

SMILES: NC1=NC(COCc2ccccc2)CO1 (centres unmarked) [ex. 8, 4-(benzyloxy-méthyl) 2-amino-oxazoline]
- IC50 (RECEPTEURS α2): > 0.1 µM
- IC50 (5-HT): > 10 µM
- UPTAKE NEUROTRANSMETTEUR IN VITRO IC 50 M DA (DA): nul à 10^-5
- UPTAKE NEUROTRANSMETTEUR IN VITRO IC 50 M NAd (NAd): nul à 10^-5

SMILES: NC1=NC(Cc2ccccc2Cl)CO1 (racemic) [ex. 11]
- IC50 (RECEPTEURS α2): 0.0027 µM
- IC50 (5-HT): > 10 µM
- IC50 (DA): > 10 µM
- IC50 (NAd): 2.5 µM

SMILES: NC1=NC(Cc2ccccc2)CO1 (single isomer, unassigned) [ex. 12]
- IC50 (RECEPTEURS α2): 0.004 µM
- IC50 (5-HT): > 10 µM
- IC50 (DA): 4 µM
- IC50 (NAd): 0.4 µM

SMILES: NC1=NC(COc2ccccc2)CO1 (racemic) [ex. 6, 4-phénoxy-méthyl 2-amino-oxazoline]
- IC50 (5-HT): > 10 µM
- IC50 (DA): > 10 µM
- UPTAKE NEUROTRANSMETTEUR IN VITRO IC 50 M NAd (NAd): nul à 10^-5

SMILES: NC1=NC(Cc2ccc(Cl)cc2)CO1 (racemic) [ex. 10]
- IC50 (RECEPTEURS α2): 0.044 µM
- IC50 (5-HT): 4 µM
- IC50 (DA): 2.3 µM
- IC50 (NAd): 4 µM

SMILES: COc1ccc(OCC2COC(N)=N2)cc1 (centres unmarked) [ex. 7, 4-(4-méthoxyphenoxymethyl) 2-amino-oxazoline]
- IC50 (RECEPTEURS α2): > 0.1 µM
- IC50 (5-HT): > 10 µM
- UPTAKE NEUROTRANSMETTEUR IN VITRO IC 50 M DA (DA): nul à 10^-5
- UPTAKE NEUROTRANSMETTEUR IN VITRO IC 50 M NAd (NAd): nul à 10^-5

SMILES: NC1=NC(Cc2ccc(O)cc2)CO1 (racemic) [ex. 20]
- IC50 (RECEPTEURS α2): > 0.1 µM

SMILES: Clc1cccc(Cl)c1N=C1NCCN1 [CLONIDINE]
- température centrale [1]: baisse de température
- noircissement qui résulte du traitement par le MSH (récepteurs α₂): antagonisé
- IC50 (RECEPTEURS α2): 0.001 µM
- exploration [2]: diminuent l'exploration
- activité vasomotrice (vasodilatation ou vasoconstriction primaire) [3]: activité vasoconstrictive d'emblée
- activité diabétogène [4]: activité diabétogène expérimentale

SMILES: NC1=NC(COc2ccccc2Cl)CO1 (centres unmarked) [ex. 5, 4-(2-chlorophénoxyméthyl) 2-amino-oxazoline]
- IC50 (RECEPTEURS α2): 0.033 µM
- IC50 (5-HT): 2.8 µM
- IC50 (DA): 7.2 µM
- IC50 (NAd): > 10 µM

SMILES: NC1=NC(CCc2ccccc2)CO1 (racemic) [ex. 13]
- IC50 (RECEPTEURS α2): > 0.1 µM
- UPTAKE NEUROTRANSMETTEUR IN VITRO IC 50 M 5-HT (5-HT; 5-HT = 5-hydroxytryptophane (so in the source)): nul à 10^-6
- UPTAKE NEUROTRANSMETTEUR IN VITRO IC 50 M DA (DA): nul à 10^-6
- IC50 (NAd): 0.23 µM

SMILES: c1ccc2c(c1)OCC(C1=NCCN1)O2 (centres unmarked) [IDAZOXAN, reference compound]
- IC50 (RECEPTEURS α2): 0.029 µM

— EP0167459B1, “2-Amino oxazolines and process for their preparation” (priority 1984, dated 1986)
